# PubChem BioAssay AID2305 (GlaxoSmithKline (GSK), 2010)
# System: P. falciparum 3D7 growth, pLDH absorbance
# Test: blood-stage malaria parasite growth potency – strain 3D7, dose response (AID 2305)
row,SMILES,IC50
1,O=C(C=Cc1cc([N+](=O)[O-])ccc1Cl)N1CCC(CCN2CCC(c3c[nH]c4ccccc34)CC2)CC1,740 nM
2,COc1c(CCNCCCCNCCc2cc(Cl)c3ccccc3c2OC)cc(Cl)c2ccccc12,170 nM
3,Cc1ccc(Nc2cc(C)nn2-c2nc(C)cc(=O)[nH]2)cc1,860 nM
4,N=C(N)c1ccc2nc(SCc3ccccc3)[nH]c2c1,690 nM
5,CCc1c[nH]c2c(N(c3ccccc3)S(C)(=O)=O)cc(C(=O)N[C@@H](Cc3ccccc3)[C@H](O)CNCc3cccc(C(F)(F)F)c3)cc12,1000 nM
6,Cc1cccc(Cl)c1S(=O)(=O)Nc1cccc(CCN2CCC(N3CCCCC3)CC2)c1,1110 nM
7,COc1ccc(-c2cc(C(=O)N[C@@H](Cc3ccccc3)C(=O)NCCN3CCCCC3)ccc2O)cc1,790 nM
8,Cc1cc(NC(=O)c2cc(Br)ccc2Cl)n(-c2nc(C)c(C)c(=O)[nH]2)n1,1130 nM
9,CCCc1ccc(NC(=O)c2ccc(CN3CCCN(CC4CCCCC4)CC3)cc2)cc1,520 nM
10,O=C(Nc1ccc(Oc2ccccc2)cc1)N[C@H]1CCN(Cc2ccc(OCCCN3CCCCC3)cc2)C1,180 nM
11,O=C(/C=C/c1ccc(Cl)c(Cl)c1)NCCCCCN1CCC(NC(=O)c2ccc3ccccc3c2)CC1,1020 nM
12,Nc1c(Cl)cc(C(O)CNCCCCCOCCCc2ccc3ncccc3c2)cc1Cl (configuration not stated),980 nM
13,NC(N)=NN=CC(=O)Nc1cc([N+](=O)[O-])cc([N+](=O)[O-])c1,630 nM
14,CC(C)(C)c1ccc(CN2CCC(CNC(=O)c3cc(-c4cccc(Cl)c4)cs3)C2)cc1 (configuration not stated),1160 nM
15,O=S(=O)(NCCN1CCCC1)c1ccc(-c2ccc(CNC3Cc4ccccc4C3)cc2)s1,590 nM
16,CC(C)CN1CCC(COc2ccc3ncn(-c4cc(O[C@H](C)c5ccccc5C(F)(F)F)c(C(N)=O)s4)c3c2)CC1,620 nM
17,COc1ccc(CNCc2ccsc2)cc1-c1ccc(S(=O)(=O)NCCN2CCCC2)s1,770 nM
18,C=C[C@H]1CN2CC[C@@H]1C[C@H]2[C@H](O)c1cc(-c2ccc(F)cc2)nc2ccc(OC)cc12,170 nM
19,CN=C(N)c1ccc(NC(=O)C=Cc2ccc(C(=O)Nc3ccc(C(N)=NC)cc3)cc2)cc1,30 nM
20,O=C(NCCCCN1CCC(c2c[nH]c3ccc(-c4ccccc4)cc23)CC1)c1ccc(-c2ccccc2)cc1,990 nM
21,FC(F)(F)c1cccc(CCNc2nccc(NCc3ccccc3Cl)n2)c1,1170 nM
22,CN1CCC[C@@H](Oc2cc3c(cc2Br)CCN3C(=O)Nc2ccc(-c3ccncc3)c(Cl)c2)C1,620 nM
23,Cc1cc(-c2ccc(NC(=O)N3CCc4cc(Br)c(N5CCN(C)CC5)cc43)cc2)cc(C)n1,1010 nM

row,SMILES,IC50
1,Cc1cc2nc(-c3cccc(C(=O)NC4CCN(Cc5ccccc5)CC4)c3)[nH]c2cc1C,830 nM
2,CCCCCCCCOc1c(OCC)cc(Cc2cnc(N)nc2N)cc1OCC,1530 nM
3,Cc1cccc2[nH]c(-c3ccc(-c4ccc(NC(=O)Nc5ccc(Cl)c(Cl)c5)cc4)cc3)nc12,830 nM
4,Cc1cc(NC2CCCC2)nc(Nc2ccccc2)n1,990 nM
5,O=C(CSc1n[nH]c(-c2ccccc2Br)n1)c1c[nH]c2ccccc12,980 nM
6,CCn1c(Sc2ccc(C#N)c([N+](=O)[O-])c2)nnc1-c1ccc(Cl)cc1,550 nM
7,CCCCNc1nccc2ccc(-c3ccncc3)cc12,770 nM
8,Nc1nc(N)c2c(ccc3c2ccn3CCCC2CCCNC2)n1 (configuration not stated),900 nM
9,CCCC1N=C(N)N=C(N)N1c1ccc(Cl)cc1 (configuration not stated),50 nM
10,CN(C)C(CNC(=O)c1cc(-c2ccncc2)c(-c2ccc(Cl)c(O)c2)o1)c1ccccc1 (configuration not stated),840 nM
11,COc1cc2nc(NCC3CCCO3)n3nc(-c4ccccc4)nc3c2cc1OC (configuration not stated),210 nM
12,COc1ccc(CN2CCC(Oc3cccc(NC(=O)c4ccc(C(F)(F)F)cc4)c3)CC2)cc1,740 nM
13,O=C(Cn1c(SCc2cccc(F)c2F)cc(=O)c2ccccc21)N(CCCn1ccnc1)Cc1ccc(-c2ccc(C(F)(F)F)cc2)cc1,1320 nM
14,C=CCOC(=O)N1CCC(CNCc2cccc(-c3cccc(-c4nc5ccc(F)cc5[nH]4)c3)c2)C1 (configuration not stated),210 nM
15,COc1ccc(C2CNCc3c2cc(OC)c(OC)c3Cl)cc1 (configuration not stated),730 nM
16,FC(F)(F)COc1ccc(CNCCCCCCNCc2ccc(OCC(F)(F)F)c3ccccc23)c2ccccc12,400 nM
17,O=S(=O)(c1ccc(OC(F)(F)F)cc1)C1C[C@H]2CC[C@@H](C1)N2S(=O)(=O)c1ccc(Cl)c(C(F)(F)F)c1 (some centres not stated),560 nM
18,CCc1c[nH]c2c(N(c3ccccc3)S(C)(=O)=O)cc(C(=O)N[C@@H](Cc3ccccc3)[C@H](O)CNC(C)(C)CCCC(C)C)cc12,820 nM
19,COc1ccc2c(c1)CCCC2NCCCCNC(=O)c1ccc(NC(=O)c2ccc(Cl)cc2)cc1 (configuration not stated),380 nM
20,CO/C(=C\C=C\c1cc2cc(Cl)c(Cl)cc2[nH]1)C(=O)NCCCN1CC(C)N(C)CC1C (configuration not stated),1130 nM
21,COc1ccc2nccc([C@@H](O)CN3CCC(NC(=O)Cc4cccc5c(Br)cccc45)CC3)c2c1,800 nM
22,CC(C)C[C@H](NC(=O)c1cc(-c2ccc(F)cc2)no1)C(=O)O (tested in a mixture with another compound),980 nM
23,Cc1ccccc1C1CCN(C2CCC(NC(=O)c3ccc(-c4cc(C(F)(F)F)nn4C)s3)CC2)CC1 (configuration not stated),850 nM

row,SMILES,IC50
1,Cc1cc(Nc2cc(Cl)cc(Cl)c2)nc(N)n1,1140 nM
2,Cc1cc(C(=O)NC2CCN(Cc3ccccc3)CC2)ccc1-c1nc2ccc(C(F)(F)F)cc2[nH]1,890 nM
3,COc1ccc(C2CC(=O)C3=C(C2)NC(C)=C(C(=O)OC2CCCC2)C3c2ccc(O)cc2)cc1OC (configuration not stated),570 nM
4,CC(C)c1ccc(CN2CCC(NC(=O)c3ccc(-c4ccccc4F)s3)CC2)cc1,1550 nM
5,N#Cc1ccc2c(c1)CCN(CCC1CCC(NC(=O)Nc3cnc4ccccc4c3)CC1)C2 (configuration not stated),770 nM
6,CC1(C)C[C@@H]2C[C@@](C)(CN2C(=O)c2cc(C(C)(C)C)nn2Cc2ccccc2)C1,1090 nM
7,CCOC(=O)c1ccc(N2CCN(CCCNC(=O)/C(=C/C=C/c3cc4cc(Cl)c(Cl)cc4[nH]3)OC)CC2)cc1,850 nM
8,O=C(Nc1ccc(F)cc1F)NC1CCN(CCCCCNC(=O)[C@@H]2C[C@H]2c2ccc(Cl)c(Cl)c2)CC1,500 nM
9,O=C(Nc1cc(Cl)c(Cl)cc1NC(=O)c1cccc(-c2ccccc2)c1O)c1cccc(-c2ccccc2)c1O,510 nM
10,O=C(Nc1ccc(Cl)cc1)Nc1cccc(-c2ccc(-c3nc4ccccc4[nH]3)cc2)c1,930 nM
11,C=C[C@H]1CN(CCCCCCC)CC[C@H]1CC(O)Cc1ccnc2cc(O)c(OC)cc12 (some centres not stated),820 nM
12,CC1(C)N=C(N)N=C(N)N1OCCCOc1ccc(N)cc1,10 nM
13,COc1cccc(OC)c1C(=O)N1CCC2(CC1)C(=O)N(CC(=O)NC1CCCCC1)CN2c1ccccc1,950 nM
14,Cc1ccc(Cc2cnc(CN3CCCCC3)c(O)c2)cc1,890 nM
15,COc1cc(NC(=O)c2sc(-c3ccc(Cl)cc3)cc2NC(=O)N2CCCC2)ccc1OCCN1CCCC1,570 nM
16,COc1c(OC)c(OC)c2ccccc2c1CNCCCCCCNCc1c(OC)c(OC)c(OC)c2ccccc12,760 nM
17,C=CCc1cc(Br)ccc1OCCCOc1c(N)nc(N)nc1N,190 nM
18,O=C(Nc1ccc(N2CCN(Cc3ccccc3Cl)CC2)cc1)c1ccc([N+](=O)[O-])o1,970 nM
19,COc1c(I)cc(Cc2cnc(N)nc2N)cc1I,930 nM
20,O=C(NCc1cccc(C(F)(F)F)c1)C(c1cc2ccccc2o1)N1CCN(C(c2ccccc2)c2ccccc2)CC1 (configuration not stated),500 nM
21,O=C(NCCCCN1CCC(O)(c2ccc3c(c2)OCO3)CC1)c1ccc(NC(=O)c2ccc(Cl)cc2)cc1,1180 nM
